From the NIST ThermoML archive (doi:10.1016/j.jct.2015.12.005)

Test: molar heat capacity at saturation pressure

c1ccc2c(c1)CCC2 [indane]
molar heat capacity [J/K/mol]
Conditions | Crystal 1, Vacuum adiabatic calorimetry | Crystal 2, Vacuum adiabatic calorimetry
5 K | – | 0.291
5.31 K | – | 0.3492
6.26 K | – | 0.6236
7.189 K | – | 0.9811
8.165 K | – | 1.463
9.174 K | – | 2.12
10 K | – | 2.735
10.22 K | – | 2.918
11.36 K | – | 3.891
12.63 K | – | 5.097
14.04 K | – | 6.61
15.6 K | – | 8.364
17.35 K | – | 10.43
19.29 K | – | 12.76
20 K | – | 13.61
21.45 K | – | 15.35
23.86 K | – | 18.19
26.55 K | – | 21.27
29.53 K | – | 24.47
30 K | – | 24.96
32.82 K | – | 27.82
36.45 K | – | 31.27
40 K | – | 34.44
40.47 K | – | 34.84
44.94 K | – | 38.64
49.87 K | – | 42.67
50 K | – | 42.77
52.71 K | – | 44.96
55.33 K | – | 47.14
57.68 K | – | 49.16
60 K | – | 51.24
62 K | – | 53.22
62.18 K | – | 53.45
62.48 K | – | 53.74
63.41 K | – | 54.75
64 K | – | 55.47
66 K | – | 57.83
67.11 K | – | 59.51
68 K | – | 60.76
70 K | – | 64.04
70.7 K | – | 67.01
70.76 K | – | 67.17
72 K | – | 67.68
72.08 K | – | 72.89
72.27 K | – | 74.46
72.75 K | – | 77.96
73.08 K | – | 82.15
73.38 K | – | 89.8
73.83 K | 57.49 | 71.43
74 K | 57.55 | –
74.14 K | 63.18 | –
74.52 K | 59.93 | –
74.89 K | 59.45 | –
76 K | 58.28 | –
76.02 K | 59.19 | –
77.68 K | 59.3 | –
78 K | 59.01 | –
79.98 K | 59.88 | –
80 K | 59.74 | –
82.01 K | 60.53 | –
82.05 K | 60.55 | –
82.97 K | 60.84 | –
83.17 K | 60.91 | –
90 K | 63.39 | –
91.46 K | 63.9 | –
100 K | 67.07 | –
100.48 K | 67.26 | –
110.07 K | 70.8 | –
119.85 K | 74.38 | –
120 K | 74.45 | –
129.73 K | 78.16 | –
138.66 K | 81.54 | –
139.61 K | 81.94 | –
140 K | 82.06 | –
148.52 K | 85.42 | –
158.5 K | 89.5 | –
160 K | 90.14 | –
168.63 K | 93.87 | –
178.81 K | 98.43 | –
180 K | 99 | –
184.22 K | 100.9 | –
189.01 K | 103.32 | –
194.75 K | 106.22 | –
199.29 K | 108.5 | –
200 K | 108.89 | –
205.19 K | 111.62 | –
209.54 K | 113.96 | –
212.42 K | 115.59 | –
214.32 K | 116.35 | –
220 K | 119.51 | –
221.79 K | 120.47 | –

Liquid
Conditions | molar heat capacity [J/K/mol]
221.79 K, Vacuum adiabatic calorimetry | 163.91
228.22 K, Vacuum adiabatic calorimetry | 165.72
228.34 K, Vacuum adiabatic calorimetry | 165.76
229.69 K, Vacuum adiabatic calorimetry | 166.13
229.78 K, Vacuum adiabatic calorimetry | 166.24
230 K, Vacuum adiabatic calorimetry | 166.22
236.45 K, Vacuum adiabatic calorimetry | 168.04
238.81 K, Vacuum adiabatic calorimetry | 168.76
240 K, Vacuum adiabatic calorimetry | 169.13
250 K, Vacuum adiabatic calorimetry | 172.31
250.13 K, Vacuum adiabatic calorimetry | 172.35
260 K, Vacuum adiabatic calorimetry | 175.75
262.1 K, Vacuum adiabatic calorimetry | 176.48
262.28 K, Vacuum adiabatic calorimetry | 176.54
270 K, Vacuum adiabatic calorimetry | 179.48
274.49 K, Vacuum adiabatic calorimetry | 181.2
275.32 K, Vacuum adiabatic calorimetry | 181.5
280 K, Vacuum adiabatic calorimetry | 183.04
286.77 K, Vacuum adiabatic calorimetry | 185.35
288.6 K, Vacuum adiabatic calorimetry | 185.93
290 K, Vacuum adiabatic calorimetry | 186.46
297.89 K, Vacuum adiabatic calorimetry | 189.38
298.15 K, Vacuum adiabatic calorimetry | 189.48
299.11 K, Vacuum adiabatic calorimetry | 189.82
300 K, Vacuum adiabatic calorimetry | 190.18
301.9 K, Vacuum adiabatic calorimetry | 190.91
310 K, Vacuum adiabatic calorimetry | 194.12
310.2 K, Vacuum adiabatic calorimetry | 194.19
311.46 K, Vacuum adiabatic calorimetry | 194.67
320 K, Vacuum adiabatic calorimetry | 198.07
322.46 K, Vacuum adiabatic calorimetry | 199.08
330 K, Vacuum adiabatic calorimetry | 202.15
333.38 K, Vacuum adiabatic calorimetry | 203.54
334.63 K, Vacuum adiabatic calorimetry | 204.04
340 K, Vacuum adiabatic calorimetry | 206.3
347.49 K, Vacuum adiabatic calorimetry | 209.45
350 K, Vacuum adiabatic calorimetry | 210.48
360 K, Vacuum adiabatic calorimetry | 214.61
360.87 K, Vacuum adiabatic calorimetry | 214.96
370 K, Vacuum adiabatic calorimetry | 218.8
374.71 K, Vacuum adiabatic calorimetry | 220.8
380 K, Vacuum adiabatic calorimetry | 223.03
388.61 K, Vacuum adiabatic calorimetry | 226.66
390 K, Vacuum adiabatic calorimetry | 227.25
400 K, Vacuum adiabatic calorimetry | 231.47
402.42 K, Vacuum adiabatic calorimetry | 232.49
409.24 K, Vacuum adiabatic calorimetry | 235.36
410 K, Vacuum adiabatic calorimetry | 235.68
415.99 K, Vacuum adiabatic calorimetry | 238.21
420 K, Vacuum adiabatic calorimetry | 239.88
426.54 K, Vacuum adiabatic calorimetry | 242.6
428.9 K, Vacuum adiabatic calorimetry | 243.53
430 K, Vacuum adiabatic calorimetry | 244.05
439.86 K, Vacuum adiabatic calorimetry | 248.28
440 K, Vacuum adiabatic calorimetry | 248.4
450 K, Small sample (50 mg) DSC | 253.17
460 K, Small sample (50 mg) DSC | 258.04
470 K, Small sample (50 mg) DSC | 262.7
480 K, Small sample (50 mg) DSC | 267.2
490 K, Small sample (50 mg) DSC | 271.71
500 K, Small sample (50 mg) DSC | 276.21
510 K, Small sample (50 mg) DSC | 280.72
520 K, Small sample (50 mg) DSC | 285.23
530 K, Small sample (50 mg) DSC | 289.72
540 K, Small sample (50 mg) DSC | 294.22
550 K, Small sample (50 mg) DSC | 298.7
560 K, Small sample (50 mg) DSC | 303.18
570 K, Small sample (50 mg) DSC | 307.65
580 K, Small sample (50 mg) DSC | 312.12
590 K, Small sample (50 mg) DSC | 316.59
600 K, Small sample (50 mg) DSC | 321.05
